Assay results: ChEMBL document CHEMBL5154678, “Lysine Stapling Screening Provides Stable and Low Toxic Cationic Antimicrobial Peptides Combating Multidrug-Resistant Bacteria In Vitro and In Vivo” (J Med Chem, 2022)
In brackets after ≈: the same amount, converted by molar mass. Starred links: 1 amine or outer side, 2 acyl side, 3 side chain; linkers in the order of their positions; H or OH if unused. Positions of bridges follow the written chain, without caps; N, C: chain ends. Non-standard residues stand in square brackets, D forms with d. Residues, ends and D or L forms follow the SMILES beside them. X1 = O=C([C@H](CCCCNCC=[*:3])N[*:1])[*:2]

Experiments:
Staphylococcus aureus [1] = assay: Antibacterial activity against Staphylococcus aureus BNCC 186335 assessed as inhibition of bacterial growth incubated for 16 hrs by broth microdilution method; assay type: functional
HEK-293T [2] = assay: Cytotoxicity against human HEK293T cells assessed as cell survival rate at 128 ug/ml incubated for 24 hrs by MTT assay relative to control; assay type: toxicity, cell-based; details: dose 128 µg/ml
Erythrocyte = assay: Hemolytic activity against human RBC assessed as concentration required to cause 10% hemolysis; assay type: toxicity, cell-based
Staphylococcus aureus [3] = assay: Antibacterial activity against methicillin-resistant Staphylococcus aureus assessed as inhibition of bacterial growth incubated for 16 hrs by broth microdilution method; assay type: functional
Listeria monocytogenes = assay: Antibacterial activity against Listeria monocytogenes assessed as inhibition of bacterial growth incubated for 16 hrs by broth microdilution method; assay type: functional
Staphylococcus aureus [4] = assay: Antibacterial activity against methicillin-resistant Staphylococcus aureus BNCC 186335 assessed as inhibition of bacterial growth incubated for 4 hrs in presence of 25% plasma by broth microdilution method; assay type: functional
HEK-293T [5] = assay: Cytotoxicity against human HEK293T cells assessed as cell survival rate at 256 ug/ml incubated for 24 hrs by MTT assay; assay type: toxicity, cell-based; details: dose 256 µg/ml
Escherichia coli [6] = assay: Antibacterial activity against cephalosporin-resistant Escherichia coli BNCC 133264 assessed as inhibition of bacterial growth incubated for 16 hrs by broth microdilution method; assay type: functional
Pseudomonas aeruginosa = assay: Antibacterial activity against Pseudomonas aeruginosa BNCC 125486 assessed as inhibition of bacterial growth incubated for 16 hrs by broth microdilution method; assay type: functional
Escherichia coli [7] = assay: Antibacterial activity against Escherichia coli BNCC 133264 assessed as inhibition of bacterial growth incubated for 16 hrs by broth microdilution method; assay type: functional
HEK-293T [8] = assay: Cytotoxicity against human HEK293T cells assessed as cell survival rate at 64 Ug/ml incubated for 24 hrs by MTT assay relative to control; assay type: toxicity, cell-based; details: dose 64 µg/ml

CC(C)[C@H](N)C(=O)N[C@H]1CCCCNCc2ccccc2CNCCCC[C@@H](C(=O)N[C@@H](Cc2ccccc2)C(=O)N[C@@H](Cc2ccccc2)C(=O)N[C@@H](CCCNC(=N)N)C(=O)N[C@@H](CCCCN)C(=O)N[C@@H](Cc2ccccc2)C(=O)N[C@@H](CCCCN)C(=O)N[C@@H](CCCCN)C(=O)N[C@@H](Cc2ccccc2)C(=O)N[C@H](C(N)=O)C(C)C)NC(=O)[C@H](CCCCN)NC(=O)[C@H](Cc2ccccc2)NC(=O)[C@H](CCCNC(=N)N)NC1=O
MIC (Staphylococcus aureus [1]): 4 µg/mL (≈ 1.87 µM) | Activity (HEK-293T [2]): Non-Toxic | MHC (Erythrocyte): > 128 µg/mL | MIC (Staphylococcus aureus [3]): 8 µg/mL (≈ 3.75 µM) | MIC (Listeria monocytogenes): 16 µg/mL (≈ 7.5 µM) | MIC (Staphylococcus aureus [4]): 128 µg/mL | Activity (HEK-293T [5]): Toxic | MIC (Escherichia coli [6]): 16 µg/mL (≈ 7.5 µM) | MIC (Pseudomonas aeruginosa): 16 µg/mL (≈ 7.5 µM) | MIC (Escherichia coli [7]): 8 µg/mL (≈ 3.75 µM)

CC(C)[C@H](N)C(=O)N[C@@H](CCCCN)C(=O)N[C@@H](CCCNC(=N)N)C(=O)N[C@@H](Cc1ccccc1)C(=O)N[C@@H](CCCCN)C(=O)N[C@H]1CCCCNCC#CCNCCCC[C@@H](C(=O)N[C@@H](Cc2ccccc2)C(=O)N[C@@H](CCCCN)C(=O)N[C@@H](CCCCN)C(=O)N[C@@H](Cc2ccccc2)C(=O)N[C@H](C(N)=O)C(C)C)NC(=O)[C@H](CCCNC(=N)N)NC(=O)[C@H](Cc2ccccc2)NC(=O)[C@H](Cc2ccccc2)NC1=O
MIC (Staphylococcus aureus [1]): 2 µg/mL (≈ 0.96 µM) | MHC (Erythrocyte): > 128 µg/mL | MIC (Staphylococcus aureus [3]): 4 µg/mL (≈ 1.92 µM) | MIC (Listeria monocytogenes): 2 µg/mL (≈ 0.96 µM) | MIC (Staphylococcus aureus [4]): 8 µg/mL | Activity (HEK-293T [5]): Toxic | MIC (Escherichia coli [6]): 16 µg/mL (≈ 7.68 µM) | MIC (Pseudomonas aeruginosa): 16 µg/mL (≈ 7.68 µM) | MIC (Escherichia coli [7]): 2 µg/mL (≈ 0.96 µM)

CC(C)[C@H](N)C(=O)N[C@H]1CCCCNCC#CCNCCCC[C@@H](C(=O)N[C@@H](Cc2ccccc2)C(=O)N[C@@H](Cc2ccccc2)C(=O)N[C@@H](CCCNC(=N)N)C(=O)N[C@@H](CCCCN)C(=O)N[C@@H](Cc2ccccc2)C(=O)N[C@@H](CCCCN)C(=O)N[C@@H](CCCCN)C(=O)N[C@@H](Cc2ccccc2)C(=O)N[C@H](C(N)=O)C(C)C)NC(=O)[C@H](CCCCN)NC(=O)[C@H](Cc2ccccc2)NC(=O)[C@H](CCCNC(=N)N)NC1=O
MIC (Staphylococcus aureus [1]): 4 µg/mL (≈ 1.92 µM) | MHC (Erythrocyte): > 128 µg/mL | MIC (Staphylococcus aureus [3]): 8 µg/mL (≈ 3.84 µM) | MIC (Listeria monocytogenes): 8 µg/mL (≈ 3.84 µM) | MIC (Staphylococcus aureus [4]): 128 µg/mL | Activity (HEK-293T [5]): Toxic | MIC (Escherichia coli [6]): 16 µg/mL (≈ 7.68 µM) | MIC (Pseudomonas aeruginosa): 16 µg/mL (≈ 7.68 µM) | MIC (Escherichia coli [7]): 4 µg/mL (≈ 1.92 µM)

CC(C)[C@H](N)C(=O)N[C@H]1CCCCNC/C=C/CNCCCC[C@@H](C(=O)N[C@@H](Cc2ccccc2)C(=O)N[C@@H](Cc2ccccc2)C(=O)N[C@@H](CCCNC(=N)N)C(=O)N[C@@H](CCCCN)C(=O)N[C@@H](Cc2ccccc2)C(=O)N[C@@H](CCCCN)C(=O)N[C@@H](CCCCN)C(=O)N[C@@H](Cc2ccccc2)C(=O)N[C@H](C(N)=O)C(C)C)NC(=O)[C@H](CCCCN)NC(=O)[C@H](Cc2ccccc2)NC(=O)[C@H](CCCNC(=N)N)NC1=O (H-V[X1]RFK[X1]FFRKFKKFV-NH2; staple (E) 2-6)
MIC (Staphylococcus aureus [1]): 2 µg/mL (≈ 0.959 µM) | MHC (Erythrocyte): > 128 µg/mL | Activity (HEK-293T [8]): Toxic | MIC (Staphylococcus aureus [3]): 4 µg/mL (≈ 1.92 µM) | MIC (Listeria monocytogenes): 16 µg/mL (≈ 7.68 µM) | MIC (Staphylococcus aureus [4]): 128 µg/mL | Activity (HEK-293T [5]): Toxic | MIC (Escherichia coli [6]): 16 µg/mL (≈ 7.68 µM) | MIC (Pseudomonas aeruginosa): 8 µg/mL (≈ 3.84 µM) | MIC (Escherichia coli [7]): 4 µg/mL (≈ 1.92 µM)
